Our source for the melting point values is a melting point compilation (Tetko et al.; mined from patent text by program, amines drawn as free bases though some values may be those of a salt).

SMILES strings stand for the structures.

`C=CCNC(=O)ON=C1SCOC1C` (stereo not given) came in with a melting point of 66 to 67.5 °C.
Turning to `CON=C(C#N)C(=O)Nc1ccc(OC(F)C(F)(F)F)cc1` (stereo not given), the melting point lay within 109 to 110 °C.
Compound `CN(C)C(=O)n1nc(NC=O)c2cc(C(F)(F)F)ccc21` returned a melting point of 198 to 200 °C.
Next, `CC(=O)NC(C)(C)c1ccc(C(C)N2CCN(c3ccccc3)CC2)cc1` (stereo not given): 169 to 171 °C; `CC(=O)Oc1ccc(C(=O)Oc2ccc(OC(=O)c3ccc(OC(C)=O)cc3)c(C)c2)cc1`: 128 to 130 °C.
The same measure for `CCOC(=O)CS(=O)(=O)N(Cc1ccc(Cl)cc1)c1ccccc1CC(=O)OC`: 86 to 88 °C.
`Cc1cc(C)nc(NC(=O)NS(=O)(=O)c2ccccc2-c2ccccc2)n1` gave a melting point of 78 °C.
`Cn1ncc2cc(/C=C/c3ccc(O)cc3)ccc2c1=O`: the melting point was 223 to 225 °C.
Next, `CCc1scc(C(=O)OC)c1NC(=O)C(F)(F)F`: 55 to 56 °C.
The same measure for `CCCCCCCCCCCCCCCCCNC(=O)OC1CCCOC1COCC(O)CCCCCCO` (stereo not given): 67 to 68 °C; for `CC(C)(C)C(=O)Nc1ccc(F)cc1C1(O)CCN(C/C=C/c2ccc(Cl)cc2)CC1`: 172 to 173 °C; for `Cc1ccccc1-c1cc(N2CCC(O)CC2)ncc1C(=O)N(C)Cc1cc(C(F)(F)F)cc(C(F)(F)F)c1`: 150 to 152 °C.
On to `O=c1c(Cc2ccncc2)c(-c2ccccc2)[nH]c2ccccc12`, for which the melting point fell in the range of 222 to 224 °C.
The same measure for `O=CC1(c2ccc(Cl)cc2)CC1`: 38 to 41 °C.
As to `CCCCCCCN(CCCCCSc1nc2ncccc2[nH]1)C(=O)NC(C)C`, the melting point fell in the range of 101 to 102 °C.
In the case of `COc1cc(OC)cc(-c2ncoc2-c2ccc(OC(F)F)c(N)c2)c1`, the melting point stood at 105 °C.
As to `Oc1ccc([C@@H]2CCc3cc(O)ccc3[C@@H]2Cn2ccnc2)cc1` (relative stereo), the melting point was 238 °C.
Compound `CON(C)C(=O)Nc1ccc(OCCc2ccc3c(c2)CC(C)(C)O3)nc1` returned a melting point of 79 to 80 °C.
`C=Cc1ccc2[nH]cc(S(=O)(=O)c3ccccc3)c2c1` came in with a melting point of 140 to 145 °C.
Next, `C=CCC(CC)(C(=O)c1ccc(OCCO)cc1)N(C)C` (stereo not given): 80 to 82 °C.
Consider `CCCn1c(=O)c2c(NC)n[nH]c2n(Cc2ccncc2)c1=O`, for which the melting point was > 300 °C.
Consider `CCOC(=O)c1cc(C)n(-c2cccnc2)c1-c1ccccc1`, for which the melting point was in the range of 102 to 103 °C.
On to `O=C(c1ccc(F)cc1)c1ccc2n1CCCC2C(=O)O` (stereo not given), for which the melting point is 161 to 162 °C.
The same measure for `Cn1c(C(F)(F)F)cc(=O)n(-c2ccc3snc(C(=O)O)c3c2)c1=O`: 149 to 152 °C; for `CCOC(=O)/C=C/c1ccc(OC(C)C)cc1Oc1ncc(C(F)(F)F)cc1Cl`: 84.5 to 85 °C.
Next, `COC(=O)COc1cc2c(c3c1c(C(=O)C(N)=O)c(C)n3Cc1cccc(F)c1)CCC2`: 142 to 144 °C.
For the compound `CC1(C)CC(SCc2c(C(F)(F)F)nn(C(C)(C)C)c2Cl)=NO1`, the melting point was in the range of 79 to 81 °C.
The compound `CCC1=NNC(C)=C(C(=O)OCc2ccco2)C1c1cccc([N+](=O)[O-])c1` (stereo not given) yielded a melting point of 152 °C.
Next, `CC(C)CC(=O)Nc1ccc(Cl)c(-c2ccnc3c(C(=O)c4cccs4)cnn23)c1`: 162 to 165 °C; `CCCCC(=NOCc1ccc(OCc2nc(-c3ccccc3)oc2C)cc1)C(=O)O`: 112 to 114 °C.
`CC(n1ncnn1)C(O)(c1ccc(Cl)cc1)c1ccc(C(F)(F)F)cc1` (stereo not given): the melting point was in the range of 123 to 125 °C.
In the case of `CC(=O)OCC(=O)C1(O)CCC2C3CCC4=CC(=O)C=CC4(C)C3C(O[Si](C)(C)C)CC21C` (stereo not given), the melting point is 180 to 184 °C.
As for `Cc1cn(CC(O)(CC(C)(C)c2cccc3c2OCC3)C(F)(F)F)c(CO)c(C)c1=O` (stereo not given), the melting point was in the range of 160 to 162 °C.
The same measure for `Cc1ccc(N2CCN(C(=O)NCCN(C)C)CC2)cc1`: 85 to 88 °C.
Compound `N#Cc1c2ccccc2c(C=O)c2ccccc12` gave a melting point of 270 to 275 °C.
Regarding `CCOc1ccc(NC(=O)OC(C)(C)C)c(C)c1`, the melting point is 55 to 56 °C.
With `CCCCCCCCCCCCCCOCC(C)(O)CNCCO` (stereo not given), the melting point lay in the range of 49.1 to 50.2 °C.
`CC1=CC(=O)c2nc3n(c2C1=O)CCC3` came in with a melting point of 162 to 164 °C.
The same measure for `Cc1nc(O)sc1-c1cn2cccnc2n1`: > 300 °C; for `Cn1c(=O)c2[nH]c(/C=C/c3ccc4c(c3)OCO4)nc2n(C)c1=O`: > 275 °C; for `O=C(c1cccs1)c1cnn2c(-c3cccc(-c4nnnn4CC4CCC4)c3)ccnc12`: 204 °C.
In turn, `COc1cc2c(cc1Nc1ncc(Cl)c(Nc3ccccc3OC)n1)CCOC(=O)N2C` had a melting point of 192 to 194 °C.
The same measure for `COc1ccc(-c2c(C(=O)O)n(Cc3cc4c(cc3Cl)OCO4)c3ccccc23)cc1`: 189 to 190 °C; for `Cc1nnc2n1-c1ccc(C#CCN3C(=O)C4CC=CCC4C3=O)cc1C(c1ccccc1F)=NC2` (stereo not given): 259 to 261 °C.
Turning to `CSc1ccc(-c2cccc(-c3nc(C(C)C)[nH]c3-c3cccc(C)n3)c2)cc1`, the melting point lay within 80 to 82 °C.
`CC1(C)CC(=NO)c2cc(-c3ccc(Br)cc3)ccc2O1`: the melting point lay in the range of 166 to 170 °C.
The same measure for `CCCCCCOc1cccc(C[C@H](NC(C)=O)[C@H](O)CNCc2cccc(CC)c2)c1`: 102 to 105 °C; for `CCOc1ccccc1CN1CCC(=O)C(C(c2ccc(F)cc2)c2ccc(F)cc2)C1` (stereo not given): 137 to 138 °C; for `Cc1cc(C)cc(Cc2[nH]c(=O)[nH]c(=O)c2C(C)C)c1`: 213 to 214 °C.
Next, `COC(=O)c1ccc2oc3c(c(=O)c2c1)CCCC3=Cc1ccccc1`: 168 to 170 °C.
As to `CCOC(=O)CN=c1sc2ccccc2s1`, the melting point was 88 to 89 °C.
The same measure for `CCc1cc2c(cc1OC(C)=O)CCC1C2CCC2(C)C(C#N)=CCC12` (stereo not given): 176 to 177 °C; for `Cc1cc(C)cc(C(=O)Cc2ccnc(NC(=O)OC(C)(C)C)c2)c1`: 133 to 136 °C.
Next, `CNc1nc(C(C)c2ccc(-c3ccccc3)c(F)c2)co1` (stereo not given): 134 to 135 °C.
Regarding `CC(O)(c1ccncc1)c1cnc(-c2ccc(F)cc2)s1` (stereo not given), the melting point was in the range of 229 to 232 °C.
`O=C(NC[C@@H](C(=O)NO)N1CCCCC1)c1ccc(OCc2cc(Cl)nc(Cl)c2)cc1` showed a melting point of 145 °C.
Regarding `O=C(O)c1cc(C(F)(F)F)cc([N+](=O)[O-])c1Cl`, the melting point is 173 °C.
Next, `CCCCCCNC(=O)c1cc(OC(C)=O)ccc1OC(C)=O`: 76.5 to 77 °C; `N#Cc1ccc(C(=O)NC2CCCNC(=O)C2)cc1` (stereo not given): 189 to 190 °C.
In turn, `COc1cc(S(C)=O)ccc1-c1nc2ccc(C(C)(C)CNS(C)(=O)=O)cc2[nH]1` (stereo not given) had a melting point of 126 to 128 °C.
With `O=C(c1sc(-c2nc3ccccc3[nH]2)nc1-c1ccco1)C1CCOCC1`, the melting point was 250 to 251 °C.
The same measure for `Nc1cc2c(c3ccccc13)C(CCl)CN2C(=O)C(F)(F)F` (stereo not given): 177 °C.
Next, `COc1ccc(COC2CCCn3c2c(-c2ccccc2)c2cc(C)c(C)cc2c3=O)cc1` (stereo not given): 145 to 146 °C.
Take `O=S(c1[nH]c(-c2ccc(Cl)cc2)c(S(=O)(=O)C(F)(F)F)c1Br)C(F)(F)F` (stereo not given): the melting point was 120 to 170 °C.
Next, `CC(C)(C)OC(=O)N1C(CC2CCCCC2)C(C(O)CNS(=O)(=O)C(c2ccccc2)c2ccccc2)OC1(C)C` (stereo not given): 58 to 65 °C; `O=C(NC1(C(=O)O)CC1)OCCOC(=O)c1ccccc1`: 174 to 176 °C.
As for `CCC1(O)CC(=O)OCc2c1cc1n(c2=O)Cc2c-1nc1ccccc1c2-c1ccc(C)cc1` (stereo not given), the melting point is > 280 °C.
The compound `Cc1nc(C)c(=O)n(CCO)c1C` had a melting point of 140 to 144 °C.
Next, `Cc1cn2ccccc2c1S(=O)(=O)c1ccc(O)cc1`: 177 °C.
For `O=C1Nc2cc(Cl)c(Cl)cc2C1c1ccccc1Cl` (stereo not given), the melting point lay within 198 to 201 °C.
Next, `Cc1ccc(-c2nc(CCC(O[Si](C)(C)C(C)(C)C)c3ccc(C=O)s3)c(C)o2)cc1` (stereo not given): 122 to 124 °C.
In turn, `OCC(O)CNc1ncnc2c1ncn2C1OC(CO)C(O)C1O` (stereo not given) registered a melting point of 164 to 165 °C.
Next, `CSc1ccc(N=Cc2ccc(Cl)cc2)cc1`: 203 to 205 °C.
The same measure for `O=c1c2c(c1=O)N(CCP(=O)(O)O)CC(O)CN2` (stereo not given): 215 to 218 °C; for `CCNc1c(OC)cc(C(=O)CS(C)(=O)=O)cc1OC`: 129 to 130 °C; for `CCCCCCCCCCCCc1nnn(CC(=O)Nc2ccc(F)cc2F)n1`: 103 to 106 °C.
Compound `Cc1cc(N)cc(C)c1S(=O)(=O)NCCSCCN` displayed a melting point of 150 to 160 °C.
The same measure for `C(=C\c1nc(COc2cccc(CCCn3ccnc3)c2)co1)/c1ccccc1`: 86 to 87 °C; for `CS(=O)(=O)OCCc1ccc(N2CCCC2=O)cc1`: 94 °C; for `CCS(=O)(=O)N(C(C)=O)c1cc(-n2nc(C(F)(F)F)n(C)c2=O)c(F)cc1C#N`: 179 °C.
As for `CC(=O)Nc1ccc(C)c2c1C(=O)CCC2`, the melting point was 92 to 94 °C.
Compound `Cn1c2nc3ccccc3nc2c2cccc(C=O)c21` came in with a melting point of 220 °C.
`COc1ccc(C(=O)Nc2nc3ccc(N)cc3c(NCc3cccs3)c2C#N)cc1` registered a melting point of 200 to 203 °C.
`Cc1cccc2c1C=C(C(=O)O)C2C` (stereo not given) showed a melting point of 190 to 193 °C.
The same measure for `CC1CC(=O)c2ccc(F)cc2O1` (stereo not given): 42 to 47 °C.
Turning to `CCN(CC)C(=O)c1ccc2ccccc2c1-c1ccccc1C`, the melting point was in the range of 150 to 152 °C.
Next, `Cn1c(=O)c2nc(C(=O)O)cn2c2ccccc21`: 267 to 268 °C; `CCc1c(-c2ccccc2)nn(C)c1-c1ccccc1`: 80 to 81 °C.
Next, `Cc1cc(-n2cncn2)c2cccc(OCc3c(Cl)ccc(S(=O)(=O)N4CCC[C@H]4C(=O)N4CCN(c5ccccn5)CC4)c3Cl)c2n1`: 108 °C; `CC(C)(C)OC(=O)NC1CCN(CCn2c(=O)ccc3ccc(C#N)cc32)CC1`: 202 °C.

One may read the melting point as the temperature, or range, at which the solid turns liquid.
